Results on eleven compounds are retold here after BindingDB's records for doi:10.1016/s0960-894x(03)00792-3 (Eli Lilly, 2003).

As usually defined, the IC50 is the concentration that gives 50% inhibition. Low readings indicate greater potency, high ones weaker potency.

Cyclin-dependent kinase 4/G1/S-specific cyclin-D1, sequence (P11802 whole entry): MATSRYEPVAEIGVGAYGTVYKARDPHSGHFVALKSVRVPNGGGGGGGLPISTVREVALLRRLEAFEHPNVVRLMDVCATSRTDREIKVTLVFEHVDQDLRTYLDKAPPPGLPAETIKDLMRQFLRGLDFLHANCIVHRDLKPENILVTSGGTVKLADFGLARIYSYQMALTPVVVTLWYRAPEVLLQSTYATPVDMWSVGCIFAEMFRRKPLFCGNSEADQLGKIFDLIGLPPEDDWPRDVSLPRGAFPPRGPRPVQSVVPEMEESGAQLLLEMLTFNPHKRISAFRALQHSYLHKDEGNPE
Cyclin-dependent kinase 4/G1/S-specific cyclin-D1, sequence (P24385 whole entry, further chain): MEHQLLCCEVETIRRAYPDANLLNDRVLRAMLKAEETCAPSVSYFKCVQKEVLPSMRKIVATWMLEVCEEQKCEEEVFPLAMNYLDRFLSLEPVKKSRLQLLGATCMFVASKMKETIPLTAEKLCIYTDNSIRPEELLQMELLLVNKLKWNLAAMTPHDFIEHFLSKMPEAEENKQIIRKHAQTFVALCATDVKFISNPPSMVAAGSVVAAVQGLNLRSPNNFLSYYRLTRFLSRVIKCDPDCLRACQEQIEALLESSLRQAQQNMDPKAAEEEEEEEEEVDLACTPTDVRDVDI

The first assay concerns the target Cyclin-dependent kinase 4/G1/S-specific cyclin-D1 (Homo sapiens, UniProt P11802). The assay can be described thus: CDK Kinase Inhibition Assay. As to conditions: pH 7; 22 °C.
Consider `O=C1NC(=O)c2c1c1c3ccccc3n3c1c1c2c2ccccc2n1[C@H]1CC[C@@H]3O1` [28-oxa-4,14,19-triazaoctacyclo[12.11.2.1^{15,18}.0^{2,6}.0^{7,27}.0^{8,13}.0^{19,26}.0^{20,25}]octacosa-1(26),2(6),7(27),8(13),9,11,20(25),21,23-nonaene-3,5-dione], for which it took 0.54 µM to reach half-maximal inhibition (IC50). The compound `COC(=O)[C@@]1(O)C[C@H]2O[C@]1(C)n1c3ccccc3c3c4c(c5c6ccccc6n2c5c31)C(=O)NC4` gave an IC50 of 0.03 µM. Against the preceding compound, the IC50 is about 18-fold lower.

The next assay deals with cAMP-dependent protein kinase catalytic subunit alpha (Bos taurus, UniProt P00517). The assay can be described thus: CDK Kinase Inhibition Assay. To be noted: 25 °C.
Take `Cn1c2ccccc2c2c3c(c4c5ccc(F)cc5[nH]c4c21)C(=O)NC3=O` [indolocarbazole deriv. 4(h)]: the IC50 is above 20 µM. Still for that read-out and setting: the same measure for `O=C1NC(=O)c2c1c1c3ccccc3[nH]c1c1[nH]c3ccccc3c21` [6,7,12,13-Tetrahydro-5,7-dioxo-5H-indolo[2,3-a]pyrrolo[3,4-c]carbazole]: above 20 µM.

For the compound `O=C1NC(=O)c2c1c1c3ccccc3[nH]c1c1c2c2ccccc2n1CCCO` [3-(3-hydroxypropyl)-3,13,23-triazahexacyclo[14.7.0.0^{2,10}.0^{4,9}.0^{11,15}.0^{17,22}]tricosa-1(16),2(10),4(9),5,7,11(15),17(22),18,20-nonaene-12,14-dione], the IC50 was above 20 µM.

As for `Cn1c2ccccc2c2c3c(c4c5ccc(Br)cc5[nH]c4c21)C(=O)NC3=O` [indolocarbazole deriv. 4(f)], the IC50 is above 20 µM. On the same count and under the same terms, the result for `Cn1c2ccccc2c2c3c(c4c5ccccc5[nH]c4c21)C(=O)NC3=O` [3-methyl-3,13,23-triazahexacyclo[14.7.0.0^{2,10}.0^{4,9}.0^{11,15}.0^{17,22}]tricosa-1(16),2(10),4(9),5,7,11(15),17(22),18,20-nonaene-12,14-dione] reads above 20 µM.

In the case of `Cn1cc(C2=C(c3cn(C)c4ccccc34)C(=O)NC2=O)c2ccccc21` [3,4-bis(1-methyl-1H-indol-3-yl)-2,5-dihydro-1H-pyrrole-2,5-dione], the IC50 was above 20 µM.

In turn, `CN(C)CCCn1cc(C2=C(c3c[nH]c4ccccc34)C(=O)NC2=O)c2ccccc21` [2-[1-(3-dimethylaminopropyl)-indol-3-yl]-3-(indol-3-yl)maleimide] displayed an IC50 above 20 µM. Turning to `COc1ccc2c(c1)[nH]c1c3[nH]c4cc(OC)ccc4c3c3c(c21)C(=O)NC3=O` [6,20-dimethoxy-3,13,23-triazahexacyclo[14.7.0.0^{2,10}.0^{4,9}.0^{11,15}.0^{17,22}]tricosa-1(16),2(10),4(9),5,7,11(15),17(22),18,20-nonaene-12,14-dione], the IC50 is above 20 µM. With `Cn1cc(C2=C(c3cn(CC(O)CO)c4ccccc34)C(=O)NC2=O)c2ccccc21` (stereo unspecified) [3-[1-(2,3-dihydroxypropyl)-1H-indol-3-yl]-4-(1-methyl-1H-indol-3-yl)-2,5-dihydro-1H-pyrrole-2,5-dione], the IC50 is above 20 µM.
